# Like-named read-outs stand apart in the source and are kept apart here.
# How the values were obtained:
# [1] = molecular target: kinases (468) (Homo sapiens, UniProt P42336, C420R); conditions: PIK3CA(C420R); 1000 nM
# [2] = molecular target: kinases (468) (Homo sapiens, UniProt P41240); conditions: CSK; 1000 nM
# [3] = molecular target: kinases (468) (Homo sapiens, UniProt P31749); conditions: AKT1; 1000 nM
# [4] = molecular target: kinases (468) (Homo sapiens, UniProt Q99683); conditions: ASK1 (MAP3K5); 1000 nM
# [5] = molecular target: kinases (468) (Homo sapiens, UniProt P24941); conditions: CDK2; 1000 nM
# [6] = molecular target: kinases (468) (Homo sapiens, UniProt Q9H0K1); conditions: kinase SIK2 (Entrez SIK2); compound concentration 1000 nM
# [7] = molecular target: kinases (468) (Homo sapiens, UniProt P10721, V559D/V654A); conditions: KIT(V559D,V654A); 1000 nM
# [8] = molecular target: kinases (468) (Homo sapiens, UniProt P54764); conditions: EPHA4; 1000 nM
# [9] = molecular target: kinases (468) (Homo sapiens, UniProt P27361); conditions: ERK1 (MAPK3); 1000 nM
# [10] = molecular target: kinases (468) (Homo sapiens, UniProt P24723); conditions: PRKCH; 1000 nM
# [11] = molecular target: kinases (468) (Homo sapiens, UniProt Q9Y463); conditions: DYRK1B; 1000 nM
# [12] = molecular target: kinases (468) (Homo sapiens, UniProt Q16512); conditions: PKN1; 1000 nM
# [13] = molecular target: kinases (468) (Homo sapiens, UniProt Q15418); conditions: compound concentration 1000 nM
# [14] = molecular target: kinases (468) (Homo sapiens, UniProt O43353); conditions: kinase RIPK2 (Entrez RIPK2); compound concentration 1000 nM
# [15] = molecular target: kinases (468) (Homo sapiens, UniProt P35626); conditions: GRK3 (ADRBK2); 1000 nM
# [16] = molecular target: kinases (468) (Homo sapiens, UniProt Q9UEW8); conditions: kinase STK39 (Entrez STK39); compound concentration 1000 nM
# [17] = molecular target: kinases (468) (Homo sapiens, UniProt P00533, DEL752-759); conditions: EGFR(S752-I759del); 1000 nM
# [18] = molecular target: kinases (468) (Homo sapiens, UniProt Q9NYL2); conditions: kinase ZAK (Entrez ZAK); compound concentration 1000 nM
# [19] = molecular target: kinases (468) (Homo sapiens, UniProt P48730); conditions: CSNK1D; 1000 nM
# [20] = molecular target: kinases (468) (Homo sapiens, UniProt Q8NEV4); conditions: MYO3A; 1000 nM
# [21] = molecular target: kinases (468) (Homo sapiens, UniProt Q7KZI7); conditions: MARK2; 1000 nM
# [22] = molecular target: kinases (468) (Homo sapiens, UniProt Q9UKE5); conditions: kinase TNIK (Entrez TNIK); compound concentration 1000 nM
# [23] = molecular target: kinases (468) (Homo sapiens, UniProt O15075); conditions: DCAMKL1 (DCLK1); 1000 nM
# [24] = molecular target: kinases (468) (Homo sapiens, UniProt O96013); conditions: PAK4; 1000 nM
# [25] = molecular target: kinases (468) (Homo sapiens, UniProt P51955); conditions: NEK2; 1000 nM
# [26] = molecular target: kinases (468) (Homo sapiens, UniProt P36888, D835H); conditions: FLT3(D835H); 1000 nM
# [27] = molecular target: kinases (468) (Homo sapiens, UniProt P41743); conditions: PRKCI; 1000 nM
# [28] = molecular target: kinases (468) (Homo sapiens, UniProt Q00532); conditions: CDKL1; 1000 nM
# [29] = molecular target: kinases (468) (Homo sapiens, UniProt P21860); conditions: ERBB3; 1000 nM
# [30] = molecular target: kinases (468) (Homo sapiens, UniProt Q00526); conditions: CDK3; 1000 nM
# [31] = molecular target: kinases (468) (Homo sapiens, UniProt Q8IYT8); conditions: kinase ULK2 (Entrez ULK2); compound concentration 1000 nM
# [32] = molecular target: kinases (468) (Homo sapiens, UniProt O14757); conditions: CHEK1; 1000 nM
# [33] = molecular target: kinases (468) (Homo sapiens, UniProt P31751); conditions: AKT2; 1000 nM
# [34] = molecular target: kinases (468) (Homo sapiens, UniProt Q99640); conditions: PKMYT1; 1000 nM
# Chain of kinases (468) (Homo sapiens, UniProt Q99640) (Q99640 whole entry): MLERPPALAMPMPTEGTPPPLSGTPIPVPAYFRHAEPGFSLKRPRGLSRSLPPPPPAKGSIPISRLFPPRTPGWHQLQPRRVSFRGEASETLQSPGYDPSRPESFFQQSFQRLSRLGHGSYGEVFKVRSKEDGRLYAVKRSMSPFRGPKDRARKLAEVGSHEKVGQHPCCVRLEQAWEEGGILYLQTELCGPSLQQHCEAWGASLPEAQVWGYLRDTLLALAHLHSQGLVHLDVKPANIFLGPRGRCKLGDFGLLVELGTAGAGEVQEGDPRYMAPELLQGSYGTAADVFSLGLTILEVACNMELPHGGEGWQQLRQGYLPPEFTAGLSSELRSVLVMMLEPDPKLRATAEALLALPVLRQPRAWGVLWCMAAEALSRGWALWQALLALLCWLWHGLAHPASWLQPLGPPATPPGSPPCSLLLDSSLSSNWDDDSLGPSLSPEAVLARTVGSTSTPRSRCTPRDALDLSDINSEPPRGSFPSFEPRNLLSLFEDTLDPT
# Chain of kinases (468) (Homo sapiens, UniProt Q15418) (Q15418 whole entry): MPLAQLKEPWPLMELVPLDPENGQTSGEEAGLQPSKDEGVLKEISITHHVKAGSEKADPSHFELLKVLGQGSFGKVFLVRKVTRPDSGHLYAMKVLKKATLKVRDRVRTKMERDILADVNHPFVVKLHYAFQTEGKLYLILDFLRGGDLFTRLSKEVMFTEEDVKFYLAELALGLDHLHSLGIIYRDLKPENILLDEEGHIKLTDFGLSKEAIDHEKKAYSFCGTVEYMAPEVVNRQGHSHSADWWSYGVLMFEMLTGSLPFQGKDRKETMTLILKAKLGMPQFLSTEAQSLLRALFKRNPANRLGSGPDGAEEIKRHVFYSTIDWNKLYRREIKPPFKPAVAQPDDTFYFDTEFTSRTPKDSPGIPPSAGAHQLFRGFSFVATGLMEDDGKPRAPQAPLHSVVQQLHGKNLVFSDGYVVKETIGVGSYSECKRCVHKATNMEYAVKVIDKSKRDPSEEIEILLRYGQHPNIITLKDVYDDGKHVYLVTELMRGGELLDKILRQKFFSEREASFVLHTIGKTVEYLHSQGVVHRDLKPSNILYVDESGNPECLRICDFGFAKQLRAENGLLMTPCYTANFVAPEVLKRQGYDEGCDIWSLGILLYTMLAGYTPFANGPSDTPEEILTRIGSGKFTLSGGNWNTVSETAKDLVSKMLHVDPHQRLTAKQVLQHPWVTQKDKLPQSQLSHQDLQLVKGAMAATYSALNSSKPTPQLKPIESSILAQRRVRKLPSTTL
# Chain of kinases (468) (Homo sapiens, UniProt P27361) (P27361 whole entry): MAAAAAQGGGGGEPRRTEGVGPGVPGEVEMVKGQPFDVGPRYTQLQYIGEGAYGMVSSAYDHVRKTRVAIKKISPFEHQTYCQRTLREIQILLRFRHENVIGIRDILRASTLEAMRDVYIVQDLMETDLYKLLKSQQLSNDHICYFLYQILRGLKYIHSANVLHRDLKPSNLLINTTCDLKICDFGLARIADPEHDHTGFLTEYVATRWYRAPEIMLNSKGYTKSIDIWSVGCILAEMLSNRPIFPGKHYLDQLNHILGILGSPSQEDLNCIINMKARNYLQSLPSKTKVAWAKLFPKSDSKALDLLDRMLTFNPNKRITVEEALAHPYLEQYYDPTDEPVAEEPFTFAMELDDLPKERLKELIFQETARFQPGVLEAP
# Chain of kinases (468) (Homo sapiens, UniProt P31749) (P31749 whole entry): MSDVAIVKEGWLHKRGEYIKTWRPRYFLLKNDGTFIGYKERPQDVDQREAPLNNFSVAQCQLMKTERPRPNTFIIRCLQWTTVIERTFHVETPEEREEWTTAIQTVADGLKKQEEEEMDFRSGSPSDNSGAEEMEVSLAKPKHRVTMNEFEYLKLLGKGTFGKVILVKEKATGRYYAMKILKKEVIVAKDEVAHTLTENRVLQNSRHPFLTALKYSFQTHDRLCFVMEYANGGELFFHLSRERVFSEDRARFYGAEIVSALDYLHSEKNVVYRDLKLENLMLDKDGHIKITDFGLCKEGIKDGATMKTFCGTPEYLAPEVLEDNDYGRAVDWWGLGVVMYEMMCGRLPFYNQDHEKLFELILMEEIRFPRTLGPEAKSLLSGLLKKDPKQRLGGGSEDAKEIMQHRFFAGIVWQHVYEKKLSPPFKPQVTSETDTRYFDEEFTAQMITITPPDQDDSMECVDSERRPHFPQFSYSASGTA
# Chain of kinases (468) (Homo sapiens, UniProt Q16512) (Q16512 whole entry): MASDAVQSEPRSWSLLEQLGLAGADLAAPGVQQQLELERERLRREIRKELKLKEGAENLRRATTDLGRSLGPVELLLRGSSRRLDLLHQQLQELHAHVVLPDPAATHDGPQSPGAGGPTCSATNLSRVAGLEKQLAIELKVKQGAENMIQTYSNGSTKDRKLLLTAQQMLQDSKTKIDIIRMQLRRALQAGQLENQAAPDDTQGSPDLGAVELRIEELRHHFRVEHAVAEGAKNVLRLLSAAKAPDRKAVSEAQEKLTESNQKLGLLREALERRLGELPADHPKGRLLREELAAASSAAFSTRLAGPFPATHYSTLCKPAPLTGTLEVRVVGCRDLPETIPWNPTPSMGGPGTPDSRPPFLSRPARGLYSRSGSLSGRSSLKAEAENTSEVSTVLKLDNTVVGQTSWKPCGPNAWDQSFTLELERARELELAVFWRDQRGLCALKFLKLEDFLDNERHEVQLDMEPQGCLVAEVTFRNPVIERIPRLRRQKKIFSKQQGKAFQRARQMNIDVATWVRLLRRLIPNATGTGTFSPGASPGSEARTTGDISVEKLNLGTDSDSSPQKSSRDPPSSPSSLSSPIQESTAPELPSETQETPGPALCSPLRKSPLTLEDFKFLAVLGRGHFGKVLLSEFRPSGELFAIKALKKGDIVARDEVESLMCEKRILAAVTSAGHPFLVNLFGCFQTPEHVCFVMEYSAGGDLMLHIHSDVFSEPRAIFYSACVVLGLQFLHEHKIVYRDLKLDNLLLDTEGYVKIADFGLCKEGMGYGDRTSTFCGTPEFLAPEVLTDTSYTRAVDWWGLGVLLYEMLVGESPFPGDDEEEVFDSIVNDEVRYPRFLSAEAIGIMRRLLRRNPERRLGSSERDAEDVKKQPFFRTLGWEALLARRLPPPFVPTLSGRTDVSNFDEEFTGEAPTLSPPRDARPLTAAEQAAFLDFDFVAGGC
# Chain of kinases (468) (Homo sapiens, UniProt O15075) (O15075 whole entry): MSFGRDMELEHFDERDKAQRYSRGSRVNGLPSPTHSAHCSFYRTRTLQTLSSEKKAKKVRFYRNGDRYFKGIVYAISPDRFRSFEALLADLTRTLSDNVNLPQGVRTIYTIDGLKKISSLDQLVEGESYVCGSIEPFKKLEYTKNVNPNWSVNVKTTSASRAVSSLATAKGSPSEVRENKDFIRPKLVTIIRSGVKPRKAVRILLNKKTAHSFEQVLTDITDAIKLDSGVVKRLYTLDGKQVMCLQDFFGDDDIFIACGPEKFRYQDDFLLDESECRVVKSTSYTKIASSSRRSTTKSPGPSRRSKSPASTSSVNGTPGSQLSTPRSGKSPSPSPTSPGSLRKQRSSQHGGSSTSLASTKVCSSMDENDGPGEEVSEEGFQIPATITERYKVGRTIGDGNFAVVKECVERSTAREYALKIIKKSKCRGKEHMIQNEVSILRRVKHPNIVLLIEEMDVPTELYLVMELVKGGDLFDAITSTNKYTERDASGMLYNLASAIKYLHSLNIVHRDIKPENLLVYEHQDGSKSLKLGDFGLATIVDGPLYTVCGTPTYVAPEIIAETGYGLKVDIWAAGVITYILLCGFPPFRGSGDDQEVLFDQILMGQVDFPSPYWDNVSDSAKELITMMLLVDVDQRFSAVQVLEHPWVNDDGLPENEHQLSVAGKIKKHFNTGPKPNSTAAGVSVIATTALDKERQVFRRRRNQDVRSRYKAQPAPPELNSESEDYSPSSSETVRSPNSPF
# Chain of kinases (468) (Homo sapiens, UniProt O96013) (O96013 whole entry): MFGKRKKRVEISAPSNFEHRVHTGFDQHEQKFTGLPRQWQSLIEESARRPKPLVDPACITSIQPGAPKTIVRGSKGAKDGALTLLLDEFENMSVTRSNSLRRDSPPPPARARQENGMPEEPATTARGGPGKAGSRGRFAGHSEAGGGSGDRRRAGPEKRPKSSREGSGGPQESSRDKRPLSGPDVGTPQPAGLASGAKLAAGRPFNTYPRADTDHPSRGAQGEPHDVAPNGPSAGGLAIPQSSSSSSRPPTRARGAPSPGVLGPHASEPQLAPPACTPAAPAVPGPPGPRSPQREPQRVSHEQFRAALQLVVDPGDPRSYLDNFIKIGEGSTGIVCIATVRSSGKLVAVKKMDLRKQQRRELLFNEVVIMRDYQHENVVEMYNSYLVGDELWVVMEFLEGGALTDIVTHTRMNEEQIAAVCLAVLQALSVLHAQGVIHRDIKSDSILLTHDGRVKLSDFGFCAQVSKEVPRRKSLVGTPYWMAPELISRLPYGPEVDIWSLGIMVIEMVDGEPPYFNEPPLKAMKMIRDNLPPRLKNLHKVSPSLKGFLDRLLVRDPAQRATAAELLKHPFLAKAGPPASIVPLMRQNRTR
# Chain of kinases (468) (Homo sapiens, UniProt P31751) (P31751 whole entry): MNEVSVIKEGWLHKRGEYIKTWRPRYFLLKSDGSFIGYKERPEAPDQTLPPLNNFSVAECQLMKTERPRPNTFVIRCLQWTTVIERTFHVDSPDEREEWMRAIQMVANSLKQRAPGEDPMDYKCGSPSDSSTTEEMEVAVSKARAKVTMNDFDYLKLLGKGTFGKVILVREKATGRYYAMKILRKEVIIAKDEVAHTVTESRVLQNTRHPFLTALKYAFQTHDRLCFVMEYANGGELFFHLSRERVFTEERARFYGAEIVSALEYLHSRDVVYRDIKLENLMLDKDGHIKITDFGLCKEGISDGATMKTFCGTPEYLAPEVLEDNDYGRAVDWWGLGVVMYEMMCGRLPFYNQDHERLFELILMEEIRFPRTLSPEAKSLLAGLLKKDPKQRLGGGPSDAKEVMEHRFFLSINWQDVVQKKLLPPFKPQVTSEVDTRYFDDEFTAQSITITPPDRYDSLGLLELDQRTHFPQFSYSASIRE
smiles,measurement,setting,value
C[C@H]1C[C@@H](O)CN(c2ncc(Cl)c(Nc3ccc4c(c3)c3c(c(=O)n4C)OCC(F)(F)[C@H](C4CC4)N3)n2)C1 [CCT373566_9A],Percent Control,[1],93%
same,Percent Control,[2],86%
same,Percent Control,[3],100%
same,Percent Control,[4],100%
same,Percent Control,[5],96%
same,Percent Control,[6],98%
same,Percent Control,[7],98%
same,Percent Control,[8],100%
same,Percent Control,[9],98%
same,Percent Control,[10],94%
same,Percent Control,[11],87%
same,Percent Control,[12],100%
same,Percent Control,[13]; kinase RSK1(Kin.Dom.1-N-terminal) (Entrez RPS6KA1),95%
same,Percent Control,[13]; kinase RSK1(Kin.Dom.2-C-terminal) (Entrez RPS6KA1),90%
same,Percent Control,[14],100%
same,Percent Control,[15],100%
same,Percent Control,[16],98%
same,Percent Control,[17],86%
same,Percent Control,[18],98%
same,Percent Control,[19],99%
same,Percent Control,[20],100%
same,Percent Control,[21],93%
same,Percent Control,[22],94%
same,Percent Control,[23],100%
same,Percent Control,[24],100%
same,Percent Control,[25],92%
same,Percent Control,[26],90%
same,Percent Control,[27],88%
same,Percent Control,[28],97%
same,Percent Control,[29],85%
same,Percent Control,[30],100%
same,Percent Control,[31],100%
same,Percent Control,[32],100%
same,Percent Control,[33],100%
same,Percent Control,[34],100%

# — article PMC9234961 (Journal of Medicinal Chemistry, 2022)
